# Data as given in the Kinase Knowledgebase extract (Sharma et al. 2016).
# Target: EGFR (human) (UniProt P00533)
# Settings: a431
# EGFR (human), sequence (P00533 whole entry, looked up): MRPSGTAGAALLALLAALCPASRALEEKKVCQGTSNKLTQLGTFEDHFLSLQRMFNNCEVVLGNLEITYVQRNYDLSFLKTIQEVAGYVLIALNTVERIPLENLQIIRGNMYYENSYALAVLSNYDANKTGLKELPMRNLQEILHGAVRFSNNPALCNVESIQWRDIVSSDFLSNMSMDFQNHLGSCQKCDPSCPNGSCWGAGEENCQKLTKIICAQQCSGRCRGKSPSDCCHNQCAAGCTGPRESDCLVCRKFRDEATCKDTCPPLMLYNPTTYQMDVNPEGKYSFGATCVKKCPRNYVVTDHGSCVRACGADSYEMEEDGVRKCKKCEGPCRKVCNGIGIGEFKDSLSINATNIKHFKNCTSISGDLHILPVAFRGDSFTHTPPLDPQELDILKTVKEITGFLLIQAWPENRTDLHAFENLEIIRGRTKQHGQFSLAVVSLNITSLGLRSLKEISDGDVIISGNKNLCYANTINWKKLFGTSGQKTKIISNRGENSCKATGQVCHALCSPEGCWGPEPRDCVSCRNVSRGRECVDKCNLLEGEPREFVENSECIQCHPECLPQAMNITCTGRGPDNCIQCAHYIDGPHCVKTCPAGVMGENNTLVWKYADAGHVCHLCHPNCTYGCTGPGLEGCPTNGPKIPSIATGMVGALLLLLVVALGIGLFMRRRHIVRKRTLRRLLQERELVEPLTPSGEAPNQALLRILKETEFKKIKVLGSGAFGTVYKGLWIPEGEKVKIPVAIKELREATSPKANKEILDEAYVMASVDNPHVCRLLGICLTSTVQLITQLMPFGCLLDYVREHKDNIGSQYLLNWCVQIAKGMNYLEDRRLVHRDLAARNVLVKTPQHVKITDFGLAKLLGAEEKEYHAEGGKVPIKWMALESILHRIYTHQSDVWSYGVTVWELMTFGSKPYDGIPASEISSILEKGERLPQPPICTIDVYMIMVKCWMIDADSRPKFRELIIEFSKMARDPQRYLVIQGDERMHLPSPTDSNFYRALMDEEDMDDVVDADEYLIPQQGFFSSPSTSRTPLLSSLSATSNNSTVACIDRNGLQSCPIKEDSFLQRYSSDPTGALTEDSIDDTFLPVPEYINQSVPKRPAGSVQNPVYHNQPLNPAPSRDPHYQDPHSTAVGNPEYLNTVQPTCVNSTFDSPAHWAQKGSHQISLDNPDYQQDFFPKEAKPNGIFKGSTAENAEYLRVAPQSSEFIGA
row,IC50,SMILES
1,> 5 mg/L,CCOc1cc2ncc(C#N)c(Nc3ccc(Sc4nc(C)cc(C)n4)c(Cl)c3)c2cc1[N+](=O)[O-]
2,1.22 mg/L,COc1cc2ncc(C#N)c(Nc3ccc(Sc4nc5ccccc5c(=O)[nH]4)c(Cl)c3)c2cc1N
3,1.2 mg/L,CCOc1cc2ncc(C#N)c(Nc3ccc(Sc4nccc(C)n4)c(Cl)c3)c2cc1[N+](=O)[O-]
4,> 5 mg/L,CCOc1cc2ncc(C#N)c(Nc3ccc(Nc4nnc(C(F)(F)F)s4)c(Cl)c3)c2cc1N
5,0.24 mg/L,CCOc1cc2ncc(C#N)c(Nc3ccc(Sc4nc(C)cc(C)n4)c(Cl)c3)c2cc1NC(=O)/C=C/CN(C)C
6,1.96 mg/L,COCCOc1cc2ncc(C#N)c(Nc3ccc4cn[nH]c4c3)c2cc1OCCOC
7,0.34 mg/L,COc1cc2ncc(C#N)c(Nc3ccc(Sc4nc5ccccc5c(=O)[nH]4)c(Cl)c3)c2cc1NC(=O)/C=C/CN(C)C
8,0.27 mg/L,CCOc1cc2ncc(C#N)c(Nc3ccc4c(c3)OCCO4)c2cc1OCC
9,0.786 mg/L,CCOc1cc2c(Nc3ccc4cn[nH]c4c3)c(C#N)cnc2cc1OC
10,0.646 mg/L,COc1cc2ncc(C#N)c(Nc3ccc(N(Cc4cccnc4)C(C)=O)c(Cl)c3)c2cc1NC(=O)/C=C/CN(C)C
11,0.017 mg/L,COc1cc2ncc(C#N)c(Nc3ccc(Sc4nccs4)c(Cl)c3)c2cc1NC(=O)/C=C/CN(C)C
12,3.04 mg/L,COc1cc2ncc(C#N)c(Nc3ccc(Sc4nccn4C)c(Cl)c3)c2cc1N
13,0.148 mg/L,COc1cc2ncc(C#N)c(Nc3ccc(Sc4nccs4)c(Cl)c3)c2cc1[N+](=O)[O-]
14,> 5 mg/L,CCOc1cc2ncc(C#N)c(Nc3ccc(Cn4ccnc4)c(Cl)c3)c2cc1N
15,0.728 mg/L,CCOc1cc2ncc(C#N)c(Nc3cc(Cl)c(Nc4nncs4)c(C(F)(F)F)c3)c2cc1NC(=O)/C=C/CN(C)C
16,0.775 mg/L,COc1cc2c(Nc3ccc(Sc4nccn4C)c(Cl)c3)c(C#N)cnc2cc1OCCCN1CCOCC1
17,1.79 mg/L,COc1cc2ncc(C#N)c(Nc3ccc(-n4ccnc4)c(Cl)c3)c2cc1[N+](=O)[O-]
18,1.79 mg/L,CCOc1cc2ncc(C#N)c(Nc3cc(Cl)c(Nc4nncs4)c(C(F)(F)F)c3)c2cc1[N+](=O)[O-]
19,0.0181 mg/L,CCOc1cc2ncc(C#N)c(Nc3ccc4c(c3)CCC4=O)c2cc1OCC
20,> 5 mg/L,COc1cc2ncc(C#N)c(Nc3ccc4cn[nH]c4c3)c2cc1OCCCN1CCOCC1
21,2.28 mg/L,COc1cc2nc(Sc3ccc(Nc4c(C#N)cnc5cc(OC)c([N+](=O)[O-])cc45)cc3Cl)[nH]c(=O)c2cc1O
22,1.53 mg/L,CCOc1cc2ncc(C#N)c(Nc3ccc(Sc4nccc(C)n4)c(Cl)c3)c2cc1N

row,IC50,SMILES
1,3.68 mg/L,COc1ccc2c(N(c3ccc(N(Cc4cccnc4)C(C)=O)c(Cl)c3)c3ccc(Nc4c(C#N)cnc5cc(OC)c(NC(C)=O)cc45)cc3Cl)c(C#N)cnc2c1
2,> 5 mg/L,CCOc1cc2ncc(C#N)c(Nc3ccc(Oc4ccncc4)c(Cl)c3)c2cc1[N+](=O)[O-]
3,0.062 mg/L,CCOc1cc2ncc(C#N)c(Nc3ccc(OCc4ccccc4)c(Cl)c3)c2cc1NC(=O)/C=C/CN(C)C
4,2.88 mg/L,COc1cc2ncc(C#N)c(Nc3ccc(Sc4nccn4C)c(Cl)c3)c2cc1[N+](=O)[O-]
5,> 5 mg/L,CCOc1cc2ncc(C#N)c(Nc3ccc(Sc4nc(-c5ccccc5)cs4)c(C(F)(F)F)c3)c2cc1N
6,0.62 mg/L,C=CC(=O)Nc1ccc2ncc(C#N)c(Nc3ccc(Sc4nccn4C)c(Cl)c3)c2c1
7,> 5 mg/L,CCOc1cc2ncc(C#N)c(Nc3ccc(Oc4ccncc4)c(Cl)c3)c2cc1N
8,0.342 mg/L,CCOc1cc2ncc(C#N)c(Nc3ccc4c(c3)CCC4)c2cc1OCC
9,0.257 mg/L,CCOc1cc2ncc(C#N)c(Nc3ccc4c(c3)S(=O)(=O)C=C4)c2cc1OCC
10,0.76 mg/L,CCOc1cc2ncc(C#N)c(Nc3ccc(Sc4nc(-c5ccccc5)cs4)c(C(F)(F)F)c3)c2cc1[N+](=O)[O-]
11,> 5 mg/L,CCOc1cc2ncc(C#N)c(Nc3ccc(Cn4ccnc4)c(Cl)c3)c2cc1[N+](=O)[O-]
12,> 5 mg/L,COc1cc2ncc(C#N)c(Nc3ccc(N(c4ccc(N(Cc5cccnc5)C(C)=O)c(Cl)c4)c4c(OC)cnc5ccccc45)c(Cl)c3)c2cc1N
13,1.6 mg/L,COc1cc2ncc(C#N)c(Nc3ccc(NCc4cccnc4)c(Cl)c3)c2cc1[N+](=O)[O-]
14,0.123 mg/L,CCOc1cc2ncc(C#N)c(Nc3ccc4cc[nH]c4c3)c2cc1OCC
15,0.51 mg/L,COc1cc2ncc(C#N)c(Nc3ccc(-n4ccnc4)c(Cl)c3)c2cc1NC(=O)/C=C/CN(C)C
16,0.663 mg/L,COc1cc2ncc(C#N)c(Nc3ccc(Sc4nccs4)c(Cl)c3)c2cc1N
17,1.83 mg/L,COc1cc2c(Nc3ccc(Sc4nccn4C)c(Cl)c3)c(C#N)cnc2cc1OCCCn1ccnn1
18,0.162 mg/L,COc1cc2ncc(C#N)c(Nc3ccc(Sc4nc(-c5ccccc5)cs4)c(Cl)c3)c2cc1NC(=O)/C=C/CN(C)C
19,0.95 mg/L,CCOc1cc2ncc(C#N)c(Nc3ccc(Cn4ccnc4)c(Cl)c3)c2cc1NC(=O)/C=C/CN(C)C
20,0.03 mg/L,COCCN(C)C/C=C/C(=O)Nc1cc2c(Nc3ccc(Sc4nccs4)c(Cl)c3)c(C#N)cnc2cc1OC
21,0.76 mg/L,CCOc1cc2ncc(C#N)c(Nc3ccc(Sc4nc(C)cc(C)n4)c(Cl)c3)c2cc1N

row,SMILES,IC50
1,CCOc1cc2ncc(C#N)c(Nc3ccc4cn[nH]c4c3)c2cc1OC,0.0368 mg/L

# Target: EGFR (UniProt P00533)
# Settings: not given
# EGFR, sequence (P00533 whole entry, looked up): as above
row,IC50,SMILES
1,0.019 mg/L,CCOc1cc2ncc(C#N)c(Nc3ccc(OCc4cccc(F)c4)c(Cl)c3)c2cc1NC(=O)/C=C/CN(C)C
2,0.028 mg/L,CCOc1cc2ncc(C#N)c(Nc3ccc(OCc4ccccc4)c(Cl)c3)c2cc1NC(=O)/C=C/CN(C)C
